The NIST ThermoML archive (doi:10.1021/je060271a)
Values joined by “and” are separate entries in the source; they are usually repeats but may differ in a detail not shown here. Identical values can stand only once.

Details: Liquid, Vibrating tube method

CCCCCC(=O)OCC(COC(=O)CCCCC)(COC(=O)CCCCC)COC(=O)CCCCC [pentaerythritol tetrahexanoate]
Details	mass density
283.15 K, 30604 kPa	1021 kg/m3
283.15 K, 30620 kPa	1020.9 kg/m3
283.15 K, 30636 kPa	1020.9 kg/m3
283.15 K, 30656 kPa	1021.1 kg/m3
283.15 K, 30672 kPa	1020.9 kg/m3
283.15 K, 30688 kPa	1021 kg/m3
283.15 K, 30708 kPa	1020.9 kg/m3
283.15 K, 30724 kPa	1021 kg/m3
283.15 K, 30740 kPa	1021 kg/m3
283.15 K, 30757 kPa	1021 kg/m3
283.15 K, 30777 kPa	1020.9 kg/m3
283.15 K, 30793 kPa	1021.1 kg/m3
283.15 K, 30809 kPa	1021 kg/m3
283.15 K, 30829 kPa	1021 kg/m3
283.15 K, 30846 kPa	1021.1 kg/m3
283.15 K, 30882 kPa	1021 kg/m3
283.15 K, 30934 kPa	1021.1 kg/m3
283.15 K, 30951 kPa	1021.1 kg/m3
283.15 K, 30967 kPa	1021.1 kg/m3
283.15 K, 30987 kPa	1021 kg/m3
283.15 K, 31003 kPa	1021.3 kg/m3
283.15 K, 31020 kPa	1021.2 kg/m3
283.15 K, 31040 kPa	1021.1 kg/m3
283.15 K, 31056 kPa	1021.2 kg/m3
283.15 K, 31073 kPa	1021.1 kg/m3
283.15 K, 31093 kPa	1021.1 kg/m3
283.15 K, 31110 kPa	1021.1 kg/m3
283.15 K, 31127 kPa	1021.2 kg/m3
283.15 K, 31147 kPa	1021.2 kg/m3
283.15 K, 31164 kPa	1021.2 kg/m3
283.15 K, 31180 kPa	1021.2 kg/m3
283.15 K, 31201 kPa	1021.3 kg/m3
283.15 K, 31217 kPa	1021.3 kg/m3
283.15 K, 31234 kPa	1021.3 kg/m3
283.15 K, 31254 kPa	1021.3 kg/m3
283.15 K, 31272 kPa	1021.2 kg/m3
283.15 K, 31289 kPa	1021.2 kg/m3
283.15 K, 31306 kPa	1021.2 kg/m3
283.15 K, 31327 kPa	1021.3 kg/m3
283.15 K, 31343 kPa	1021.3 kg/m3
283.15 K, 31361 kPa	1021.3 kg/m3
283.15 K, 31378 kPa	1021.3 kg/m3
283.15 K, 31398 kPa	1021.4 kg/m3
283.15 K, 31415 kPa	1021.3 kg/m3
283.15 K, 31432 kPa	1021.4 kg/m3
283.15 K, 31453 kPa	1021.5 kg/m3
283.15 K, 31470 kPa	1021.4 kg/m3
283.15 K, 31488 kPa	1021.5 kg/m3
283.15 K, 31509 kPa	1021.5 kg/m3
283.15 K, 31528 kPa	1021.5 kg/m3
283.15 K, 31545 kPa	1021.6 kg/m3
283.15 K, 31562 kPa	1021.5 kg/m3
283.15 K, 31583 kPa	1021.3 kg/m3
283.15 K, 31600 kPa	1021.4 kg/m3
283.15 K, 31618 kPa	1021.5 kg/m3
283.15 K, 31639 kPa	1021.5 kg/m3
283.15 K, 31656 kPa	1021.5 kg/m3
283.15 K, 31674 kPa	1021.5 kg/m3
283.15 K, 31691 kPa	1021.5 kg/m3
283.15 K, 31712 kPa	1021.6 kg/m3
283.15 K, 31730 kPa	1021.4 kg/m3
283.15 K, 31748 kPa	1021.6 kg/m3
283.15 K, 31770 kPa	1021.4 kg/m3
283.15 K, 31787 kPa	1021.5 kg/m3
283.15 K, 31805 kPa	1021.5 kg/m3
283.15 K, 31823 kPa	1021.6 kg/m3
283.15 K, 31845 kPa	1021.5 kg/m3
283.15 K, 31863 kPa	1021.6 kg/m3
283.15 K, 31881 kPa	1021.5 kg/m3
283.15 K, 31902 kPa	1021.5 kg/m3
283.15 K, 31920 kPa	1021.4 kg/m3
283.15 K, 31942 kPa	1021.6 kg/m3
283.15 K, 31960 kPa	1021.6 kg/m3
283.15 K, 31978 kPa	1021.7 kg/m3
283.15 K, 31996 kPa	1021.6 kg/m3
283.15 K, 32019 kPa	1021.5 kg/m3
283.15 K, 32037 kPa	1021.7 kg/m3
283.15 K, 32055 kPa	1021.8 kg/m3
283.15 K, 32077 kPa	1021.7 kg/m3
283.15 K, 32096 kPa	1021.6 kg/m3
283.15 K, 32115 kPa	1021.8 kg/m3
283.15 K, 32133 kPa	1021.7 kg/m3
283.15 K, 32156 kPa	1021.6 kg/m3
283.15 K, 32349 kPa	1021.8 kg/m3
283.15 K, 32369 kPa	1021.8 kg/m3
283.15 K, 32386 kPa	1021.7 kg/m3
283.15 K, 32399 kPa	1021.8 kg/m3
283.15 K, 32420 kPa	1021.7 kg/m3
283.15 K, 32436 kPa	1021.9 kg/m3
283.15 K, 32455 kPa	1022 kg/m3
283.15 K, 32472 kPa	1022 kg/m3
283.15 K, 32488 kPa	1021.9 kg/m3
283.15 K, 32506 kPa	1021.9 kg/m3
283.15 K, 32526 kPa	1021.9 kg/m3
283.15 K, 32543 kPa	1022 kg/m3
283.15 K, 32560 kPa	1021.9 kg/m3
283.15 K, 32575 kPa	1022 kg/m3
283.15 K, 32587 kPa	1021.9 kg/m3
283.15 K, 32601 kPa	1022 kg/m3
283.15 K, 32613 kPa	1021.9 kg/m3
283.15 K, 32626 kPa	1021.9 kg/m3
283.15 K, 32639 kPa	1022 kg/m3
283.15 K, 32654 kPa	1022 kg/m3
283.15 K, 32665 kPa	1022 kg/m3
283.15 K, 32672 kPa	1022 kg/m3
283.15 K, 32680 kPa	1022 kg/m3
283.15 K, 32688 kPa	1022.1 kg/m3
283.15 K, 32694 kPa	1022 kg/m3
283.15 K, 32703 kPa	1022 kg/m3
283.15 K, 32708 kPa	1022.1 kg/m3
283.15 K, 32709 kPa	1022 kg/m3
283.15 K, 32711 kPa	1021.8 kg/m3
283.15 K, 32715 kPa	1022 kg/m3
283.15 K, 32718 kPa	1022 kg/m3
283.15 K, 32720 kPa	1022 kg/m3 and 1022.1 kg/m3
283.15 K, 32723 kPa	1021.9 kg/m3 and 1022 kg/m3
283.15 K, 32725 kPa	1021.9 kg/m3
283.15 K, 32726 kPa	1022 kg/m3
283.15 K, 32853 kPa	1022 kg/m3
283.15 K, 32977 kPa	1022.2 kg/m3
283.15 K, 32981 kPa	1022.1 kg/m3
283.15 K, 32985 kPa	1022.1 kg/m3
283.15 K, 32990 kPa	1022.1 kg/m3
283.15 K, 32992 kPa	1022.2 kg/m3
283.15 K, 32997 kPa	1022.1 kg/m3
283.15 K, 33001 kPa	1022.1 kg/m3
283.15 K, 33005 kPa	1022.2 kg/m3
283.16 K, 90.5 kPa	1004.1 kg/m3
283.16 K, 90.7 kPa	1004.2 kg/m3
283.16 K, 90.8 kPa	1004.2 kg/m3
283.16 K, 90.9 kPa	1004.1 kg/m3 and 1004.3 kg/m3
283.16 K, 91.2 kPa	1004.3 kg/m3 and 1004.2 kg/m3
283.16 K, 91.4 kPa	1004.1 kg/m3 and 1004.2 kg/m3 and 1004 kg/m3
283.16 K, 91.5 kPa	1004.1 kg/m3 and 1004.2 kg/m3
283.16 K, 91.7 kPa	1004.2 kg/m3 and 1004.1 kg/m3
283.16 K, 91.9 kPa	1004.2 kg/m3
283.16 K, 92.1 kPa	1004.3 kg/m3
283.16 K, 92.2 kPa	1004.2 kg/m3 and 1004.1 kg/m3
283.16 K, 92.4 kPa	1004.2 kg/m3
283.16 K, 92.6 kPa	1004.2 kg/m3
283.16 K, 92.8 kPa	1004.1 kg/m3 and 1004.2 kg/m3 and 1004 kg/m3
283.16 K, 93.1 kPa	1004.2 kg/m3 and 1004.1 kg/m3
283.16 K, 93.3 kPa	1004.1 kg/m3 and 1004.2 kg/m3
283.16 K, 93.6 kPa	1004.2 kg/m3
283.16 K, 93.8 kPa	1004.1 kg/m3 and 1004.2 kg/m3
